Publication PMC3929086, “Targeted manipulation of the sortilin–progranulin axis rescues progranulin haploinsufficiency” (Human Molecular Genetics, 2013)

Experiments:
[1] = test system: SORT1-mediated PGRN endocytosis; assay: Quantitative DyL-rPGRN endocytosis assay in COS-1^SORT1 cells; format: cell-based, human; settings: COS-1^SORT1, 5 μM binder pre-incubated 1 h with rPGRN, 1 h endocytosis
Experimental: COS-1 cells seeded on a 96-well black plate 1 day before were transfected with pCMV-SORT1 vector. After 24 h, cells were treated with fluorescence-tagged rPGRN (DyL-rPGRN) pre-labeled by DyLight™ 594 antibody labeling kit (Thermo Scientific). The DyL-rPGRN was diluted in OptiMEM to tested concentrations and incubated with the cells for 1 h for endocytosis. The cells were then washed with cold PBS and then fixed by 4% paraformaldehyde. After washing twice, each well was filled with PBS prior scanning. The total PGRN fluorescent signal from the cells was obtained by a plate reader with 593/618 nm (Ex/Em) settings. The endocytosis signal was normalized by the total nuclei signal obtained by staining with a Hoechst 33342 dye. Baseline endocytosis signal was defined as a signal from medium-only-treated cells, whereas the 100% endocytosis level was set as the signal obtained from cells treated with 50 nM DyL-rPGRN. For testing SORT1 ligands, DyL-rPGRN and the peptide were added simultaneously to the cells. For testing of PGRN binders, the binder was pre-incubated with DyL-rPGRN for 1 h before adding to the cells. For qualitative analysis, images from each well were captured by BD Pathway 855 system using a 20× magnification setting.

[2] = test system: PGRN endocytosis in SORT1^KO-hESCs; assay: DyL-rPGRN endocytosis in SORT1^KO-hESCs; format: cell-based, human; settings: SORT1^KO-hESC
Excerpt: (§1) To determine whether BVFP, when bound to PGRN, disrupts full-length PGRN and SORT1 binding, we devised a SORT1-dependent rPGRN precipitation assay utilizing the Meso-Scale Discovery (MSD) system (Supplementary Material, Fig. S4A and B). […] To include a higher-affinity PGRN588–593 motif binder as a positive control, an antibody targeting the motif, PGRN-CT antibody, was made for validating the approach (Fig. 5F). […] First, we found SORT1 was abundantly expressed in the wild-type hESCs (Fig. 5H). Similar to the results from COS-1^SORT1 cells, BVFP and PGRN-CT antibody inhibited endocytosis of DyL-rPGRN by 22 and 39%, respectively, under the same experimental conditions in wild-type hESCs (Fig. 5I left).
(§2) COS-1 cells seeded on a 96-well black plate 1 day before were transfected with pCMV-SORT1 vector. After 24 h, cells were treated with fluorescence-tagged rPGRN (DyL-rPGRN) pre-labeled by DyLight™ 594 antibody labeling kit (Thermo Scientific). The DyL-rPGRN was diluted in OptiMEM to tested concentrations and incubated with the cells for 1 h for endocytosis. The cells were then washed with cold PBS and then fixed by 4% paraformaldehyde. After washing twice, each well was filled with PBS prior scanning. The total PGRN fluorescent signal from the cells was obtained by a plate reader with 593/618 nm (Ex/Em) settings. […]

PGRN588–593 peptide = PGRN588–593 peptide (Homo sapiens, UniProt P28799); assay: Epic biochemical binding assay (resonant waveguide grating); settings: PGRN588–593 peptide immobilized; PBS with 5% DMSO; 30 min binding; n = 4
Excerpt: page 6: SUPPLEMENTARY METHODS AND RESULTS Epic(R) biochemical assay and compound library screen Essentially, the Epic® is a spectrophotometric reader that uses a resonant waveguide grating detection mechanism to detect biochemical interactions (Fig.5A). In brief, the waveguide grating biosensor in each well of the 384-well assay plate intercepts broadband light and measures changes in resonant wavelengths (in picometers, pm) when a ligand binds to the target protein immobilized on the biosensor. To identify chemical binders of the PGRN588-593 peptide, we immobilized the peptide onto the biosensor surface of Epic® assay plates using an amine- coupling method, and screened 4,800 compounds. For immobilization, 150 µg/ml peptide diluted in a 20 mM sodium acetate buffer, pH 5, was added to the assay plate to incubate for overnight at 4 °C. The plate was then washed in binding buffer (PBS with 5% DMSO) for three times and equilibrated in the binding buffer for 6 h in the Epic® carousal. During the equilibration period, compounds from the library stock plate (CNS-set compound library from Chembridge®) were diluted to 50 µM in binding buffer. Each compound was tested in quadruplicate. After the equilibration, a Baseline Reading was acquired by the Epic® spectrophotometer. […] After mixing and a 30 min ‘binding’ period, a Final Reading was acquired. […]

SORT1–PGRN interaction = assay: MSD-based SORT1–PGRN interaction assay; format: biochemical, human; settings: BVFP 20 and 200 μM pre-incubated 30 min with 200 nM N-rP
Experimental: M17 cells were transfected with pCMV-SORT1-Flag for 48 h. Then, the cell lysate was harvested by the same method used in the co-immunoprecipitation assay. Expression of SORT1-Flag protein was confirmed by western blot. MSD plate was first coated with the Flag M2 antibody (Sigma). Following an overnight incubation at 4°C, the plate was blocked for 2 h and then washed prior to addition of 5 µg/well of lysate protein containing SORT1-Flag protein. After overnight incubation at 4°C, it was then washed and added with 200 nM of either N-6His- or C-6His-tagged rPGRN pre-incubated with either vehicle, 20 µM or 200 µM of BVFP, for 30 min at room temperature. Then plate was then incubated for 2 h, washed and incubated with a mixture of PCDGF antibody and a SULFO-TAG-labeled anti-rabbit IgG antibody for 2 h. After final wash, the plate was read by the MSD Sector Imager 2400.

[3] = test system: PGRN endocytosis in WT-hESCs; assay: DyL-rPGRN endocytosis in wild-type hESCs; format: cell-based; settings: Homo sapiens; WT-hESC, BVFP, same conditions as COS-1^SORT1 (5 μM)
Excerpt: as §1, §2

PGRN(588–593) peptide = assay: UV-absorption titration of BVFP with PGRN(588–593) peptide; format: binding, human; settings: 20 μM BVFP, PGRN(588–593) peptide titrated
Experimental: Stock solutions of compound BVFP (20 mM) and PGRN(588–593) peptide (12.96 mM) were prepared in DMSO and water, respectively. For the UV absorption experiment, both components were diluted to give final concentrations of 20 μM BVFP and 324 μM peptide. The interaction between BVFP and the PGRN(588–593) peptide was monitored by scanning over the UV absorbance range of 200–800 nm on a Cary 3 Bio UV–visible spectrophotometer (Varian), as a small amount of KKGRN peptide (0.1 equivalence/1 μl per addition) was titrated into the 20 μM BVFP sample. In addition to baseline correction with DMSO, a control titration experiment using water in place of the PGRN(588–593) peptide was performed under identical conditions in order to correct for potential spectral changes owing to sample dilution.

GRN expression = settings: HDAC inhibitor; cited from earlier work
Excerpt: While new strategies designed to upregulate PGRN levels have emerged, challenges remain in terms of limiting off-target effects. […] However, because HDAC and V-ATPase inhibitors can potentially affect a wide-range of genes at transcriptional and po ...

SORT1 = assay: PGRN endocytosis in M17 cells overexpressing SORT1; format: cell-based; settings: M17 cells overexpressing SORT1, after EL reaction
Experimental: M17 cells seeded in 12-well culture plates (western blot) or on glass coverslips in 24-well culture plate (immunofluorescence) were transfected with pEGFP-N1 (Clontech) or pCMV-SORT1 (OriGene) vectors. Next day, the cells were changed into serum-free medium 1 h before addition of rPGRN (500 ng/ml) and treated for 60 min. The cells were then put on ice and washed with cold PBS. For western blot, cells were lysed in cold M-Per protein extraction buffer followed by standard procedures as mentioned. For immunofluorescence analyses, cells were fixed in 4% paraformaldehyde solution followed by PBS washes. The cells were then incubated in blocking buffer (PBS, 5% goat serum, 0.1% saponin) for 1 h at room temperature followed by incubation in primary antibody overnight at 4°C. The cells were incubated with secondary antibodies (1:1000) for 1 h at room temperature. The coverslips were then mounted onto slides and waited overnight before analysis. Image analysis was performed by Zeiss LSM 510 META confocal microscope using 60× magnification setting.

elastase = assay: Elastase digestion of rPGRN in cell culture media; format: in vitro ADME; settings: in vitro reaction with EL in culture media; compared with WT rPGRN, western blot
Experimental: PGRN, SORT1, GFP, GAPDH and β-actin proteins were analyzed using 10% Tris–glycine polyacrylamide gel by SDS–PAGE. After electrophoresis, proteins on gel were transblotted to PVDF membranes followed by standard immunoblotting protocols.

O=c1nc(C=Cc2cccc(Br)c2)cc(C(F)(F)F)[nH]1 [BVFP, 4-[2-(3-bromophenyl)vinyl]-6-(trifluoromethyl)-2(1H)-pyrimidinone]
inhibition of DyL-rPGRN endocytosis [1]: 23% | effect on DyL-rPGRN endocytosis [2]: no effect on DyL-rPGRN endocytosis | Kd (PGRN588–593 peptide): 20 µM | inhibition of rPGRN binding to immobilized SORT1 (SORT1–PGRN interaction): dose-dependent inhibition of rPGRN binding to immobilized SORT1 | inhibition at 5 µM [3]: 22% | UV-absorption change upon peptide titration (PGRN(588–593) peptide): shift in the ultraviolet(UV)-absorption spectra of BVFP and distinct changes of absorption intensities | isosbestic point (PGRN(588–593) peptide): 313 nm

O=C(CCCCCCC(=O)Nc1ccccc1)NO [suberoylanilide hydroxamic acid]
GRN expression (GRN expression): enhancer of GRN expression

B1: A588G-rPGRN: rPGRN with Ala-to-Gly mutation at the A588 elastase cleavage site (protein)
chain: TRCPDGQFCPVACCLDPGGASYSCCRPLLDKWPTTLSRHLGGPCQVDAHCSAGHSCIFTVSGTSSCCPFPEAVACGDGHHCCPRGFHCSADGRSCFQRSGNNSVGAIQCPDSQFECPDFSTCCVMVDGSWGCCPMPQASCCEDRVHCCPHGAFCDLVHTRCITPTGTHPLAKKLPAQRTNRAVALSSSVMCPDARSRCPDGSTCCELPSGKYGCCPMPNATCCSDHLHCCPQDTVCDLIQSKCLSKENATTDLLTKLPAHTVGDVKCDMEVSCPDGYTCCRLQSGAWGCCPFTQAVCCEDHIHCCPAGFTCDTQKGTCEQGPHQVPWMEKAPAHLSLPDPQALKRDVPCDNVSSCPSSDTCCQLTSGEWGCCPIPEAVCCSDHQHCCPQGYTCVAEGQCQRGSEIVAGLEKMPARRASLSHPRDIGCDQHTSCPVGQTCCPSLGGSWACCQLPHAVCCEDRQHCCPAGYTCNVKARSCEKEVVSAQPATFLARSPHVGVKDVECGEGHFCHDNQTCCRDNRQGWACCPYRQGVCCADRRHCCPAGFRCAARGTKCLRREAPRWDAPLRDPGLRQLL
modifications: left off: His6, end not stated, state not stated
notes: rPGRN with Ala-to-Gly mutation at the A588 elastase cleavage site
uptake after elastase treatment (SORT1): endocytosed by cells to a similar extent compared with no EL control | resistance to elastase (residual full-length protein in medium) (elastase): more resistant to EL activity
